Laboratory results taken from patent US20210236476A1, “METHODS OF TREATING CANCER WITH SMALL MOLECULE PD-L1 INHIBITORS” (CHEMOCENTRYX, INC., priority 2018, published 2021).

Target: T1, human PD-L1 / human PD-1 interaction (Homo sapiens, UniProt Q9NZQ7)
T1 construct: purchased R&D (PD-L1); ACRO Biosystems (PD-1, biotin)
Experiment: ELISA of PD-1/PD-L1 interaction
Format: binding
Summary of the method: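 Plates coated with 1 μg/mL human PD-L1 and blocked with BSA; serially diluted (1:5) compounds plus biotinylated human PD-1 (0.3 μg/mL) incubated 1 h at 37° C. Bound PD-1 detected with streptavidin-HRP/TMB, absorbance at 450 nm.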

T1 sequence (Q9NZQ7 19-239 limits assumed): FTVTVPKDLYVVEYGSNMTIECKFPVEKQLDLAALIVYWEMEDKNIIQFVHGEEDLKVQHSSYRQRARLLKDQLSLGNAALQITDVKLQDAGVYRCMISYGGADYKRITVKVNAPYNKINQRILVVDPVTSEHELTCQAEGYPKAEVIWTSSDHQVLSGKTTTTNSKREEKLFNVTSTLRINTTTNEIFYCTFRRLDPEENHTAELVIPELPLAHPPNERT

| SMILES | IC50 [nM] |
| --- | --- |
| Cc1c(OCCCNC[C@@H](O)CO)cccc1-c1cccc2c1CC[C@@H]2Oc1cc(OCc2cncc(C#N)c2)c(CN[C@H](C(=O)O)[C@@H](C)O)cc1Cl | < 5 |
| Cc1c(OCCCN2CCC(F)CC2)cccc1-c1cccc2c1CC[C@@H]2Oc1cc(OCc2cc(C#N)cc(C#N)c2)c(CNC[C@@H]2CCC(=O)N2)cc1Cl | < 5 |
| Cc1c(OCCCN2[C@H](C)CC[C@H]2C)cccc1-c1cccc2c1CC[C@@H]2Oc1cc(OCc2cc(C#N)cc(C#N)c2)c(CN[C@H]2CCC(=O)NC2)cc1Cl | < 5 |
| N#Cc1cncc(COc2cc(O[C@H]3CCc4c(-c5cccc(OCCCN6CCC(F)CC6)c5Cl)cccc43)c(Cl)cc2CN[C@H]2CCOC[C@H]2O)c1 | < 5 |
| Cc1c(OCCCN2CCCCC2)cccc1-c1cccc2c1CC[C@@H]2Oc1cc(OCc2cc(C#N)cc(C#N)c2)c(CN[C@@H]2CCCC[C@@H]2O)cc1Cl | < 5 |
| CC(CO)(CO)NCc1cc(Cl)c(O[C@H]2CCc3c(-c4cccc(OCCCN5CCNC(=O)C5)c4Cl)cccc32)cc1OCc1cncc(C#N)c1 | < 5 |
| C[C@@](CO)(NCc1cc(Cl)c(O[C@H]2CCc3c(-c4cccc(OCCCN5CCC(O)CC5)c4F)cccc32)cc1OCc1cncc(C#N)c1)C(=O)O | < 5 |
| Cc1c(OCCCN2CC(C)(C)C2)cccc1-c1cccc2c1CC[C@@H]2Oc1cc(OCc2cc(C#N)cc(C#N)c2)c(CN[C@H]2CCC(=O)NC2)cc1Cl | < 5 |
| N#Cc1cncc(COc2cc(O[C@H]3CCc4c(-c5cccc(OCCCN6CC(O)C6)c5Cl)cccc43)c(Cl)cc2CN2CCCC3(C2)NC(=O)NC3=O)c1 (some centres unmarked) | < 5 |
| C[C@@](CO)(NCc1cc(Cl)c(O[C@@H]2c3cccc(-c4cccc(OCCCN5CC(O)C5)c4Cl)c3C[C@@H]2F)cc1OCc1cncc(C#N)c1)C(=O)O | < 5 |
| CC1(O)CCN(Cc2cc(Cl)c(O[C@H]3CCc4c(-c5cccc(OCCCN6CCC(F)CC6)c5Cl)cccc43)cc2OCc2cncc(C#N)c2)CC1 | < 5 |
| Cc1c(OCCCN2CCC(O)CC2)cccc1-c1cccc2c1CC[C@@H]2Oc1cc(OCc2cncc(C#N)c2)c(CN[C@@H](CO)C(N)=O)cc1Cl | < 5 |
| N#Cc1cncc(COc2cc(O[C@H]3CCc4c(-c5cccc(OCCCN6CC7(C6)CC(F)(F)C7)c5Cl)cccc43)c(Cl)cc2CN[C@@H]2CC[C@H]2O)c1 | < 5 |
| CCOc1cc(O[C@H]2CCc3c(-c4cccc(OCCCN5CCC5(C)C)c4C)cccc32)c(Cl)cc1CNC[C@@H]1CCC(=O)N1 | < 5 |
| N#Cc1cncc(COc2cc(O[C@H]3CCc4c(-c5cccc(OCCCN6CC(O)C6)c5Cl)cccc43)c(Cl)cc2CN2CC3(CC(O)C3)C2)c1 | < 5 |
| N#Cc1cncc(COc2cc(O[C@H]3CCc4c(-c5cccc(OCCCN6CCC(F)CC6)c5Cl)cccc43)c(Cl)cc2CN2CC[C@@H](O)C2)c1 | < 5 |
| N#Cc1cncc(COc2cc(O[C@H]3CCc4c(-c5cccc(OCCCN6CCCCC6)c5Cl)cccc43)c(Cl)cc2CNC[C@H]2CCC(=O)N2)c1 | < 5 |
| CN(Cc1cc(Cl)c(O[C@H]2CCc3c(-c4cccc(OCCCN5CC(O)C5)c4Cl)cccc32)cc1OCc1cncc(C#N)c1)[C@@](C)(CO)C(=O)O | < 5 |
| Cc1c(OCCCN2CCC2(C)C)cccc1-c1cccc2c1CC[C@@H]2Oc1cc(OCc2cc(C#N)cc(C#N)c2)c(CN[C@H]2CCC(=O)NC2)cc1Cl | < 5 |

Continued, values first:

| IC50 [nM] | SMILES |
| --- | --- |
| < 5 | N#Cc1cncc(COc2cc(O[C@H]3CCc4c(-c5cccc(OCCCN6CC7(CC(F)C7)C6)c5Cl)cccc43)c(Cl)cc2CN[C@H]2CCC[C@H]2O)c1 |
| < 5 | N#Cc1cc(C#N)cc(COc2cc(O[C@H]3CCc4c(-c5cccc(OCCCN6CCC(F)CC6)c5Cl)cccc43)c(Cl)cc2CNC[C@H]2CCC(=O)N2)c1 |
| < 5 | N#Cc1cncc(COc2cc(O[C@H]3CCc4c(-c5cccc(OCCCN6CCC(F)CC6)c5Cl)cccc43)c(Cl)cc2CN[C@@H]2CCOC[C@@H]2O)c1 |
| < 5 | N#Cc1cncc(COc2cc(O[C@H]3CCc4c(-c5cccc(OCCCN6CCC(O)CC6)c5Cl)cccc43)c(Cl)cc2CNC[C@@H]2CCC(=O)N2)c1 |
| < 5 | CCOc1cc(O[C@H]2CCc3c(-c4cccc(OCCCN5CC[C@@H](O)C5)c4C)cccc32)c(Cl)cc1CN[C@@H](CO)C(=O)O |
| < 5 | Cc1c(OCCCN2CCC(O)CC2)cccc1-c1cccc2c1CC[C@@H]2Oc1cc(OCc2cncc(C#N)c2)c(CNCc2cn(C)cn2)cc1Cl |
| < 5 | N#Cc1cncc(COc2cc(O[C@H]3CCc4c(-c5cccc(OCCCN6CC7(CC(F)C7)C6)c5Cl)cccc43)c(Cl)cc2CN[C@H]2CCC[C@@H]2O)c1 |
| < 5 | Cc1c(OCCCN2CC[C@@H](F)C2)cccc1-c1cccc2c1CC[C@@H]2Oc1cc(OCc2cncc(C#N)c2)c(CN[C@@H]2CCCC[C@@H]2O)cc1Cl |
| < 5 | N#Cc1cncc(COc2cc(O[C@H]3CCc4c(-c5cccc(OCCCN6CC(O)C6)c5Cl)cccc43)c(Cl)cc2CNC[C@@H]2CCC(=O)N2)c1 |
| < 5 | N#Cc1cncc(COc2cc(O[C@H]3CCc4c(-c5cccc(OCCCN6CCC(O)CC6)c5Cl)cccc43)c(Cl)cc2CN[C@@H](CO)C(=O)O)c1 |
| < 5 | CCOc1cc(O[C@H]2CCc3c(-c4cccc(OCCCN5CCC(O)CC5)c4C)cccc32)c(Cl)cc1CN[C@@H](CO)C(=O)O |
| < 5 | Cc1c(OCCCN2CCCCC2)cccc1-c1cccc2c1CC[C@@H]2Oc1cc(OCc2cncc(C#N)c2)c(CNC[C@@H]2CCC(=O)N2)cc1Cl |
| < 5 | N#Cc1cncc(COc2cc(O[C@H]3CCc4c(-c5cccc(OCCCN6CC(O)C6)c5Cl)cccc43)c(Cl)cc2CN2CC[C@@H](O)C2)c1 |
| < 5 | Cc1c(OCCCN2CCC(O)CC2)cccc1-c1cccc2c1CC[C@@H]2Oc1cc(OCc2cncc(C#N)c2)c(CN2CC(O)C2)cc1Cl |
| < 5 | Cc1c(OCCCN2CCCCC2)cccc1-c1cccc2c1CC[C@@H]2Oc1cc(OCc2cncc(C#N)c2)c(CNC[C@H]2CCC(=O)N2)cc1Cl |
| < 5 | Cc1c(OCCCN2CC[C@H](O)[C@H](F)C2)cccc1-c1cccc2c1CC[C@@H]2Oc1cc(OCc2cncc(C#N)c2)c(CN[C@H](C(=O)O)[C@@H](C)O)cc1Cl |
| < 5 | CC(CO)(NCc1cc(Cl)c(O[C@H]2CCc3c(-c4cccc(OCCCN5CCOCC5)c4Cl)cccc32)cc1OCc1cncc(C#N)c1)C(=O)O (some centres unmarked) |
| < 5 | N#Cc1cncc(COc2cc(O[C@H]3CCc4c(-c5cccc(OCCCN6CC(F)C6)c5Cl)cccc43)c(Cl)cc2CN[C@@H]2CCCC[C@@H]2O)c1 |
| < 5 | N#Cc1cncc(COc2cc(O[C@H]3CCc4c(-c5cccc(OCCCN6CCC(F)CC6)c5Cl)cccc43)c(Cl)cc2CN[C@H]2CCC[C@H]2O)c1 |
| < 5 | Cc1c(OCCCN2C(C)CC2C)cccc1-c1cccc2c1CC[C@@H]2Oc1cc(OCc2cc(C#N)cc(C#N)c2)c(CN[C@H]2CCC(=O)NC2)cc1Cl (some centres unmarked) |
| < 5 | C[C@@H](O)[C@H](NCc1cc(Cl)c(O[C@H]2CCc3c(-c4cccc(OCCCN5CCC(C)(F)CC5)c4Cl)cccc32)cc1OCc1cncc(C#N)c1)C(=O)NS(C)(=O)=O |
| < 5 | N#Cc1cncc(COc2cc(O[C@H]3CCc4c(-c5cccc(OCCCN6CC7(C6)CC(F)(F)C7)c5Cl)cccc43)c(Cl)cc2CN[C@H]2CCC[C@H]2O)c1 |
| < 5 | CCOc1cc(O[C@H]2CCc3c(-c4cccc(OCCCN5CC(O)C5)c4C)cccc32)c(Cl)cc1CN[C@@H](CO)C(=O)O |
| < 5 | Cc1c(OCCCN2CCC(F)CC2)cccc1-c1cccc2c1CC[C@@H]2Oc1cc(OCc2cc(C#N)cc(C#N)c2)c(CNCC(=O)NS(C)(=O)=O)cc1Cl |
| < 5 | Cc1c(OCCCN2CCC(O)CC2(C)C)cccc1-c1cccc2c1CC[C@@H]2Oc1cc(OCc2cc(C#N)cc(C#N)c2)c(CN[C@H]2CCC(=O)NC2)cc1Cl (some centres unmarked) |
